According to patent publication US8889711B2, “Pyrazolopyridine derivatives as anticancer agent” (Pierre Fabre Medicament, priority 2009, dated 2014):

Assays:
ALK kinase = ALK kinase (Homo sapiens, UniProt Q9UM73); experiment: Test to measure ALK kinase inhibition (GST-PLCγ1 substrate, anti-phosphotyrosine ELISA, luminescence); assay type: biochemical; settings: ALK kinase 180 ng/ml, 250 μM ATP, 30 minutes at 30° C.
Procedure, shortened: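 GST-PLCγ1 substrate-coated plate; ALK at 180 ng/ml in Tris pH 7.5 buffer with MgCl2, DTT, β-glycerophosphate, orthovanadate and 250 μM ATP, 30 min at 30 °C, inhibitor typically 30 μM to 10 nM. Phosphotyrosine detected with HRP anti-phosphotyrosine antibody, luminescence read-out.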

karpas 299 cells = experiment: Measurement of inhibition of cell proliferation (Karpas), ATPlite; assay type: cell-based
Procedure, shortened: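 Karpas 299 cells seeded at 300 000 cells/ml, treated on Day 1 and incubated at 37° C under 5% CO2 for 72 h. Viability measured on Day 4 by ATPlite luminescence of ATP from viable cells. IC50 derived by non-linear sigmoid dose-response regression with variable Hill slope.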

Chain of ALK kinase (Q9UM73 19-1620): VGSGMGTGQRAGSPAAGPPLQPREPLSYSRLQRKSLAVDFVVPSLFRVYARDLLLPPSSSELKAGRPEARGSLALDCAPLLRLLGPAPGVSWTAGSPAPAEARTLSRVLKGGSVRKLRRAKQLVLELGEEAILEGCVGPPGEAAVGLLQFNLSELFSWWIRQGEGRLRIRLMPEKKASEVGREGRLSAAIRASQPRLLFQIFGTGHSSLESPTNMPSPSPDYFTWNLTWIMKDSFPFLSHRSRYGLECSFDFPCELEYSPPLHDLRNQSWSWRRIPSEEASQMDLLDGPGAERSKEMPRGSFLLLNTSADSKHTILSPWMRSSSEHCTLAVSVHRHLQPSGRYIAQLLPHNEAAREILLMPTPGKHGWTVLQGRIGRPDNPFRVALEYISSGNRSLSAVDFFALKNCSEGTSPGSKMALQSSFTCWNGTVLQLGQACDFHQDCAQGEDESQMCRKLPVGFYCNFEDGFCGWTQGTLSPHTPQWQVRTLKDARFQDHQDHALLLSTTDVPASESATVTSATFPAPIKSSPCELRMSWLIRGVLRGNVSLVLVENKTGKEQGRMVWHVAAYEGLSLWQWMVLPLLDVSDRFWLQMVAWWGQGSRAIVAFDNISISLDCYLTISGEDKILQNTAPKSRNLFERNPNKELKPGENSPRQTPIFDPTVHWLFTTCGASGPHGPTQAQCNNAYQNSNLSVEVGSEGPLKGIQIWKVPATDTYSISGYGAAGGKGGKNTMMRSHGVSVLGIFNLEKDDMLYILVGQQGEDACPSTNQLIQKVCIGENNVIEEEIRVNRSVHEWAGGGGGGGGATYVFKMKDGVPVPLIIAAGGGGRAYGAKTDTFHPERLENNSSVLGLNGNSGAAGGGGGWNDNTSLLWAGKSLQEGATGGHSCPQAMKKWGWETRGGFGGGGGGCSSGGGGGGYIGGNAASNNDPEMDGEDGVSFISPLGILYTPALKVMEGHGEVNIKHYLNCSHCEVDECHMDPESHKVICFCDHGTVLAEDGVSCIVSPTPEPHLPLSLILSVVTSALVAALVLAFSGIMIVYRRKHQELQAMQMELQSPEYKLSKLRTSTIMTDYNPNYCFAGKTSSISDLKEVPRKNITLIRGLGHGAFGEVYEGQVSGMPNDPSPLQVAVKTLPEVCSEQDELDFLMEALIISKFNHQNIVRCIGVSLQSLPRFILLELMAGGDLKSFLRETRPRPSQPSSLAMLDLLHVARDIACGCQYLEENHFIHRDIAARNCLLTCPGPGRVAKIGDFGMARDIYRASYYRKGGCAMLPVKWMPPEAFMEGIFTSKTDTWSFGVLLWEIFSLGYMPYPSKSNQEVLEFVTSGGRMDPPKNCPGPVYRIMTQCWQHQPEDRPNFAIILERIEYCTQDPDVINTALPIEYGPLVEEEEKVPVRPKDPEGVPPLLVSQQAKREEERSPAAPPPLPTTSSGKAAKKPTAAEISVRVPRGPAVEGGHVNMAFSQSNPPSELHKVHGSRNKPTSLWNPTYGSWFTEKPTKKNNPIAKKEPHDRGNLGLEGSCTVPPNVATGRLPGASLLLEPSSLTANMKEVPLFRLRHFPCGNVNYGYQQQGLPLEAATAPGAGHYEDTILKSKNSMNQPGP

Compound | IC50 (ALK kinase) [nM] | IC50 (karpas 299 cells; Homo sapiens, KARPAS-299, 72 h) [nM] | IC50 (karpas 299 cells; 72 hours) [nM]
Cc1n[nH]c2nc(-c3ccc(O)cc3F)c(C#N)c(-c3ccc(N4CCC(O)CC4)o3)c12 [Compound 153] | < 100 | 1000 to 10000 | –
N#Cc1c(-c2ccc(O)cc2)nc2[nH]ncc2c1-c1nccs1 [Compound 48] | 100 to 1000 | 1000 to 10000 | –
N#Cc1c(-c2ccc(O)cc2F)nc2[nH]ncc2c1-c1ccco1 [Compound 75] | < 100 | 100 to 1000 | –
N#Cc1c(-c2ccc(O)cc2F)nc2[nH]nc(-c3ccco3)c2c1-c1ccc(N2CCNCC2)cc1 [Compound 197] | < 100 | 100 to 1000 | –
Cc1n[nH]c2nc(-c3ccc(O)cc3F)c(C#N)c(-c3ccc(N4CCC(CN)C4)o3)c12 (stereo not shown) [Compound 163] | < 100 | 1000 to 10000 | –
CN(C)CCCN(C)c1ccc(-c2c(C#N)c(-c3ccc(O)cc3F)nc3[nH]nc(N)c23)cc1 [Compound 191] | < 100 | 1000 to 10000 | –
Cc1n[nH]c2nc(-c3ccc(O)cc3F)c(C#N)c(-c3ccc(N4CCC(N5CCN(C)CC5)CC4)o3)c12 [Compound 169] | < 100 | – | 100 to 1000
Cc1n[nH]c2nc(-c3ccc([N+](=O)[O-])cc3F)c(C#N)c(-c3ccc(N4CCNCC4)cc3)c12 [Compound 158] | 1000 to 10000 | > 10000 | –
Cc1n[nH]c2nc(-c3ccc(O)cc3F)c(C#N)c(-c3ccc(N4CCNCC4)c(N)c3)c12 [Compound 226] | 100 to 1000 | 1000 to 10000 | –
N#Cc1c(-c2cc(Cl)c(O)cc2F)nc2[nH]nc(N)c2c1-c1ccc(N2CCNCC2)cc1 [Compound 199] | < 100 | > 10000 | –
CC(C)(C)c1n[nH]c2nc(-c3ccc(O)cc3F)c(C#N)c(-c3ccc(N4CCNCC4)cc3)c12 [Compound 230] | 100 to 1000 | 1000 to 10000 | –
N#Cc1c(-c2ccc(O)cc2)nc2[nH]ncc2c1-c1ccoc1 [Compound 45] | 100 to 1000 | 1000 to 10000 | –
N#Cc1c(-c2ccc(O)cc2F)nc2[nH]nc(N)c2c1-c1ccc(N2CCNCC2)cc1F [Compound 181] | < 100 | 1000 to 10000 | –
N#Cc1c(-c2ccc(O)cc2F)nc2[nH]nc(N)c2c1-c1ccc(C2CCNCC2)cc1 [Compound 195] | < 100 | 1000 to 10000 | –
Cc1n[nH]c2nc(-c3ccc(O)cc3F)c(C#N)c(-c3cnc(N4CCN(C)CC4)s3)c12 [Compound 167] | 100 to 1000 | 1000 to 10000 | –
Cc1n[nH]c2nc(-c3ccc(O)cc3F)c(C#N)c(-c3cnc(N)s3)c12 [Compound 150] | 100 to 1000 | > 10000 | –
Cc1n[nH]c2nc(-c3ccc(O)cc3F)c(C#N)c(-c3csc(C4CCNCC4)n3)c12 [Compound 165] | 100 to 1000 | – | 1000 to 10000
COc1cc(-c2c(C#N)c(-c3ccc(O)cc3F)nc3[nH]nc(C)c23)ccc1OCCCN(C)C [Compound 177] | 100 to 1000 | 1000 to 10000 | –
Cc1cc(O)ccc1-c1nc2[nH]nc(C)c2c(-c2ccc(N3CCNCC3)cc2)c1C#N [Compound 189] | 100 to 1000 | 1000 to 10000 | –
Cc1cc(-c2nc3[nH]nc(N)c3c(-c3ccc(N4CCNCC4)cc3)c2C#N)ccc1O [Compound 187] | < 100 | 1000 to 10000 | –
Cc1n[nH]c2nc(-c3cc(Cl)ccc3F)c(C#N)c(-c3ccc(N4CCNCC4)cc3)c12 [Compound 217] | 1000 to 10000 | 1000 to 10000 | –
CNc1ccc(-c2nc3[nH]nc(C)c3c(-c3ccc(N4CCNCC4)cc3)c2C#N)c(F)c1 [Compound 222] | 1000 to 10000 | > 10000 | –
Cc1n[nH]c2nc(-c3c(F)ccc(F)c3F)c(C#N)c(-c3ccc(N4CCNCC4)cc3)c12 [Compound 161] | 100 to 1000 | > 10000 | –
N#Cc1cc2c(N)n[nH]c2nc1-c1ccc(O)cc1F [Compound 105] | 100 to 1000 | 1000 to 10000 | –

Results, then the compound that gave them:

IC50 (ALK kinase) [nM] | IC50 (karpas 299 cells; Homo sapiens, KARPAS-299, 72 h) [nM] | IC50 (karpas 299 cells; 72 hours) [nM] | Compound
100 to 1000 | 1000 to 10000 | – | N#Cc1c(-c2c(F)ccc(F)c2F)nc2[nH]nc(-c3ccco3)c2c1-c1ccc(N2CCNCC2)cc1 [Compound 242]
1000 to 10000 | 1000 to 10000 | – | N#Cc1c(-c2cccc(O)c2)nc2[nH]nc(-c3cccs3)c2c1-c1ccc(N2CCNCC2)cc1 [Compound 231]
1000 to 10000 | 1000 to 10000 | – | Cc1c(C#N)c(-c2c(F)ccc(F)c2F)nc2[nH]nc(-c3ccc(N4CCNCC4)cc3)c12 [Compound 248]
100 to 1000 | 1000 to 10000 | – | Cc1cc(-c2nc3[nH]nc(-c4cccs4)c3c(-c3ccc(N4CCNCC4)cc3)c2C#N)cc(C)c1O [Compound 283]
1000 to 10000 | 1000 to 10000 | – | N#Cc1c(-c2ccc(CCl)cc2)nc2[nH]nc(-c3ccc(C(F)(F)F)cc3)c2c1-c1ccc(N2CCNCC2)cc1 [Compound 290]
100 to 1000 | > 10000 | – | CC(C)(C)C(=O)Oc1ccc(-c2nc3[nH]nc(N)c3c(-c3ccc(N4CCNCC4)cc3)c2C#N)c(F)c1 [Compound 301]
100 to 1000 | > 10000 | – | N#Cc1c(-c2ccc(O)cc2F)nc2[nH]nc(N)c2c1-c1ccc(-c2ccc(S(N)(=O)=O)cc2)o1 [Compound 271]
< 100 | 100 to 1000 | – | COC(=O)c1c(-c2ccc(O)cc2F)nc2[nH]nc(N)c2c1-c1ccc(N2CCNCC2)cc1 [Compound 295]
< 100 | 100 to 1000 | – | N#Cc1c(-c2ccc(O)cc2F)nc2[nH]nc(-c3ccc(C(F)(F)F)cc3)c2c1-c1ccc(N2CCNCC2)cc1 [Compound 244]
100 to 1000 | – | 1000 to 10000 | N#Cc1c(-c2cccc(O)c2)nc2[nH]nc(-c3cccs3)c2c1-c1ccc(N2CCNCC2)cc1 [Compound 247]
< 100 | < 100 | – | COC(=O)c1c(-c2ccc(O)c(C)c2)nc2[nH]nc(C)c2c1-c1ccc(N2CCNCC2)cc1 [Compound 293]
< 100 | 1000 to 10000 | – | CN(C)CCN1CCN(c2ccc(-c3c(C#N)c(-c4ccc(O)cc4)nc4[nH]nc(-c5ccc(Cl)cc5)c34)c(F)c2)CC1 [Compound 299]
< 100 | 100 to 1000 | – | Cc1cc(-c2nc3[nH]nc(C)c3c(-c3ccc(N4CCNCC4)cc3)c2C#N)c(F)cc1O [Compound 286]
< 100 | 100 to 1000 | – | Cc1cc(-c2nc3[nH]nc(-c4ccco4)c3c(-c3ccc(N4CCNCC4)cc3)c2C#N)ccc1O [Compound 251]
< 100 | 1000 to 10000 | – | N#Cc1c(-c2ccc(O)cc2Cl)nc2[nH]nc(-c3ccc(N4CCOCC4)cc3)c2c1-c1ccc(N2CCNCC2)cc1 [Compound 256]
100 to 1000 | 1000 to 10000 | – | Cc1n[nH]c2nc(-c3ccc(O)cc3Cl)c(C#N)c(-c3ccc(N4CCNCC4)cc3)c12 [Compound 254]
100 to 1000 | > 10000 | – | Cc1n[nH]c2nc(-c3ccc(O)cc3)c(C#N)c(-c3ccc(-c4ccc(S(N)(=O)=O)cc4)o3)c12 [Compound 275]
1000 to 10000 | 1000 to 10000 | – | N#Cc1c(-c2ccc(CO)cc2)nc2[nH]nc(-c3ccc(C(F)(F)F)cc3)c2c1-c1ccc(N2CCNCC2)cc1 [Compound 291]
1000 to 10000 | > 10000 | – | N#Cc1c(-c2cnn[nH]2)nc2[nH]nc(-c3cccs3)c2c1-c1ccc(N2CCNCC2)cc1 [Compound 279]
1000 to 10000 | 1000 to 10000 | – | CN(C)CC#Cc1ccc(-c2c(C#N)c(-c3ccc(O)cc3)nc3[nH]ncc23)o1 [Compound 274]
